Key:
Assay type in all cases: cell-based, human
WNT-TCF targets [1] = experiment: RT-qPCR gene expression in U251 glioblastoma cells; details: 16h, batch 3, vs DMSO=1
Protocol: (§1) RT-qPCR was performed as in Melotti et al. (2014, supra) using BioRad equipment and reagents. Cells cultured in nitro were treated with the desired concentration of drug in DMEM-F12 and reduced serum (2.5% FBS) for 16h, unless otherwise noted, and collected in Trizol (Sigma) before total RNA extraction and cDNA synthesis. Primers were as in Table 1. HPRT (gene encoding Hypoxanthine phosphoribosyltransferase 1) and βACTIN were used as housekeeping controls for normalization.
(§2) Primary colon cells CC14, CC36 and mCC11, colon cancer cell lines DLD1, HT29, Ls174T, melanoma cell line MeWo, glioblastoma cell lines U87 and U251, and the lung cancer cell line H358 were cultured in DMEM-F12 with 10% FBS under standard in nitro conditions.

WNT-TCF targets [2] = experiment: RT-qPCR gene expression in CC14 primary colon cancer cells; set-up: cMYC expression: scale not given here
Protocol: as §1
Primary colon cells CC14 were cultured in DMEM-F12 with 10% FBS under standard in vitro conditions.
as §2

WNT-TCF targets [3] = experiment: RT-qPCR gene expression in DLD1 cells
Protocol: as §1, §2

DLD1 cells = experiment: Clonal spheroid assay, DLD1; details: Homo sapiens, DLD-1, 16 h, read-out: IC50, number of stem cell-derived spheroids
Protocol: Cells were treated with different concentrations of compounds for 16h in 2D adherent culture, washed, harvested and plated in suspension with serum-free DMEM-F12 media with B27 supplement (1:50 dilution) at 1 cell/well in 96-well format in triplicates. Plated cells were monitored to ensure the presence of single cells in each well and spheroids counted and photographed after 10 days for each round.
To directly test for a long-lasting repression of WNT-TCF targets by CAP2 clonogenic properties of cancer stem cells were tested. DLD1 and LS174T cells were first treated with CAP2 in 2D culture in vitro followed by removal of the drug, washing with PBS, and plating under non-adherent 3D conditions for clonal spheroid growth in the absence of the drug. After primary spheroid growth, the spheroids were dissociated and replated as single cells for secondary and subsequent clonogenic spheroid formation, also in the absence of the compound of the invention. As negative control DMSO-treatment was used.

[4] = test system: chromatin components and remodelers; experiment: Microarray analysis of chromatin components and remodelers in Ls174T cells; details: CAP2-treated cells vs DMSO
Protocol: Cells treated with compounds were collected in Trizol and RNA was harvested using standard protocols. Quality and quantity of RNA was checked using Nano Series (Agilent Technologies). Samples with a RNA Integrity Number (RIN) >9/10 were chosen and cDNA and cRNA samples were prepared using GeneChip IVT Express kit. Genechip hybridization was done using the same kit and applied to PrimeView U219 human array (Affymetrix) in the Genomic Platform at the Faculty of Medicine, University of Geneva.
Mining the transcriptome of CAP2-treated cells for CAP2-induced expression changes the public Reactome database for a chromatin organization cluster expanded to include related family members (94 probes) was used.

WNT-TCF targets [5] = experiment: Epistatic rescue with TCF^VP16, mCC11; details: CAP2 5µM, 16h
Protocol: Lentivectors expressing a TCF4^VP16 protein in a vector independently expressing GFP, or vector alone, plus reporter plasmids were transfected into cells. 72h after transfection cells were visually checked for expression of GFP. Independent batches of cells with >80% GFP expression were chosen for further experimentation and treated with or without compounds in DMEM-F12 (with 2.5% FBS) for 16h and collected in Trizol.
If the effects of CAP2 on WNT-TCF targets were specific, an activated form of TCF should rescue the repression since CAP2 is likely to act downstream of the APC destruction complex since it was found using an N'Δ form of βCATENIN that is APC insensitive. To activate this last step of canonical WNT signaling, a fusion between TCF and the potent transactivation domain of the viral VP16 protein, TCF^VP16 (Melotti et al., 2014, supra), was used to directly and positively regulate TCF targets. […] Rescue of LGR5, cMYC and ASCL2 repression by CAP2 (at 5µM) was also observed although there was variability between the cell types, similarly to the repression of CDKN1A (Table 8), although in all cases it reversed its enhancement by CAP2 treatment (Table 8).

[6] = CC14, 1.25µM, 16h, batch 3, vs DMSO=1
[7] = CC14, 2.5µM, 16h, batch 3, vs DMSO=1
[8] = CC14, 5µM, 16h, batch 3, vs DMSO=1
[9] = CC14, 10µM, 16h, batch 3, vs DMSO=1
[10] = DLD1, 1.25µM, 16h, batch 3, vs DMSO=1
[11] = DLD1, 2.5µM, 16h, batch 3, vs DMSO=1
[12] = DLD1, 5µM, 16h, batch 3, vs DMSO=1
[13] = DLD1, 10µM, 16h, batch 3, vs DMSO=1
[14] = Table 7, DLD1, 1.25µM, vs DMSO=1
[15] = Table 7, DLD1, 2.5µM, vs DMSO=1
[16] = Table 11, head 'in vitro', DLD1, concentration not given
[17] = Table 13, DLD1 secondary 3D spheroids, pretreated 2.5µM

## CC1=C(C)C(=O)O[C@@H]([C@](C)(O)[C@]2(O)CC[C@@]3(O)[C@@H]4CC=C5CC=CC(=O)[C@]5(C)[C@H]4CC[C@]23C)C1 [CAP2]
WNT-TCF targets [1]; 1.25µM
  AXIN2 expression: 0.9
  LGR5 expression: 0.5
WNT-TCF targets [1]; 2.5µM
  AXIN2 expression: 0.8
  LGR5 expression: 0.3
WNT-TCF targets [1]; 5µM
  AXIN2 expression: 0.7
  LGR5 expression: 0.2
WNT-TCF targets [1]; 10µM
  AXIN2 expression: 0.5
  LGR5 expression: 0.2
WNT-TCF targets [2]; 100 nM, Example 2 cells (CC14)
  AXIN2 expression: 0.7
  LGR5 expression: 0.3
  cMYC expression: 0.2
WNT-TCF targets [2]; [6]
  AXIN2 expression: 0.9
  LGR5 expression: 1.0
WNT-TCF targets [2]; [7]
  AXIN2 expression: 1.5
  LGR5 expression: 0.8
WNT-TCF targets [2]; [8]
  AXIN2 expression: 0.7
  LGR5 expression: 0.1
WNT-TCF targets [2]; [9]
  AXIN2 expression: 0.7
  LGR5 expression: 0.03
WNT-TCF targets [3]; [10]
  AXIN2 expression: 1.2
  LGR5 expression: 1.6
WNT-TCF targets [3]; [11]
  AXIN2 expression: 0.2
  LGR5 expression: 0.3
WNT-TCF targets [3]; [12]
  AXIN2 expression: 0.3
  LGR5 expression: 0.1
WNT-TCF targets [3]; [13]
  AXIN2 expression: 0.1
  LGR5 expression: 0.04
WNT-TCF targets [3]; DLD1, 2D culture, 2.5µm
  AXIN2 expression level as compared to control: 0.2
WNT-TCF targets [3]; [14]
  ASCL2 expression: 0.2
  AXIN2 expression: 0.8
  CDKN1A expression: 7.2
  LEF1 expression: 0.4
  LGR5 expression: 0.5
  cMYC expression: 0.5
WNT-TCF targets [3]; [15]
  ASCL2 expression: 0.2
  AXIN2 expression: 0.6
  CDKN1A expression: 8.6
  LEF1 expression: 0.3
  LGR5 expression: 0.3
  cMYC expression: 0.2
WNT-TCF targets [3]; Table 7, DLD1, 5µM, vs DMSO=1
  ASCL2 expression: 0.3
  AXIN2 expression: 0.5
  CDKN1A expression: 9.0
  LEF1 expression: 0.1
  LGR5 expression: 0.1
  cMYC expression: 0.001
WNT-TCF targets [3]; Table 7, DLD1, 10µM, vs DMSO=1
  ASCL2 expression: 0.3
  AXIN2 expression: 0.2
  CDKN1A expression: 6.1
  LEF1 expression: 0.1
  LGR5 expression: 0.1
  cMYC expression: 0.0002
WNT-TCF targets [3]; [16]
  ASCL2 expression: 0.3
  AXIN2 expression: 0.5
  LGR5 expression: 0.1
WNT-TCF targets [3]; Table 13, DLD1 2D, 2.5µM
  AXIN2 expression: 0.2
  cMYC expression: 0.1
WNT-TCF targets [3]; [17]
  AXIN2 expression: 0.5
  cMYC expression: 0.4
DLD1 cells
  IC50: < 1250 nM
[4]
  EED repression: 8 fold
  SMARCAL1 repression: 6 fold
  ZMYND8 repression: 28 fold
WNT-TCF targets [5]
  ASCL2 expression, TCF^VP16+ CAP2 / control + CAP2: 3.5
  AXIN2 expression, TCF^VP16+ CAP2 / control + CAP2: 21.9
  CDKN1A expression, TCF^VP16+ CAP2 / control + CAP2: 0.8
  LGR5 expression, TCF^VP16+ CAP2 / control + CAP2: 2.9
  cMYC expression, TCF^VP16+ CAP2 / control + CAP2: 3.3
